How the values were obtained:
[1] = system: Dermatophyten und Schimmelpilze; Hefen; experiment: Antimycotic in-vitro activity, serial dilution test; type: cell-based; conditions: Reihenverdünnungstest, 5 x 10^4 Keimen/ml Substrat, 20°C, 24 bis 96 Stunden; compared with prior-art compounds (A) and (B)
Protocol: Die in-vitro-Prüfungen wurden im Reihenverdünnungstest mit Keiminokula von durchschnittlich 5 x 10^4 Keimen/ml Substrat durchgeführt. Als Nährmedium dienten • a) für Dermatophyten und Schimmelpilze: Sabourand's milieu d'épreuve • b) für Hefen: Fleischextrakt-Traubenzucker-Bouillon.
Die Bebrütungstemperatur betrug 20°C, die Bebrütungsdauer lag bei 24 bis 96 Stunden.

[2] = system: Candida; experiment: Antimycotic in-vivo activity (oral) in mouse candidosis; conditions: Mäuse SPF-CF1 infected i.v. with 1 - 2 x 10^6 Candida-Zellen, 50 - 100mg/ kg one hour before and seven hours after infection, survival, compared with (A) and (B)
Protocol: Mäuse vom Typ SPF-CF1 wurden intravenös mit 1 - 2 x 10^6 logarithmisch wachsenden Candida-Zellen, die in physiologischer Kochsalzlösung suspendiert werden, infiziert. Eine Stunde vor und sieben Stunden nach der Infektion werden die Tiere mit jeweils 50 - 100mg/ kg Körpergewicht der Präparate oral behandelt.
Unbehandelte Tiere starben 3 bis 6 Tage post infektionen. Die Ueberlebensrate am 6.Tag post infektionem betrug bei unbehandelten Kontrolltieren etwa 5 %. In diesem Test zeigen z.B. die erfindungsgemäßen Verbindungen 3, 9.

Row | SMILES | antimykotische Wirkung [1] | Wirkung [2]
1 | CC(C)(C)C(O)/C(=C\c1ccccc1C(F)(F)F)n1cncn1 (stereo not drawn) [Beispiel 2, 4.4-Dimethyl-2-(1,2,4-triazol-1-yl)-1-(2-trifluormethylphenyl)-1-penten-3-ol] | bessere antimykotische Wirkung als die aus dem Stand der Technik bekannten Verbindungen (A) und (B) | –
2 | CC(C)(C)C(O)C(=Cc1ccc(C(F)(F)F)cc1)n1cncn1 (stereo not drawn) [Beispiel 3, 4,4-Dimethyl-2-(1,2,4-triazol-1-yl)-1-(4-trifluormethylphenyl)-1-penten-3-ol] | bessere antimykotische Wirkung als die aus dem Stand der Technik bekannten Verbindungen (A) und (B) | bessere Wirkung als die aus dem Stand der Technik bekannten Verbindungen (A) und (B)
3 | CC(C)(C)C(O)/C(=C/c1ccc([N+](=O)[O-])cc1)n1cncn1 (stereo not drawn) [Beispiel 9] | – | bessere Wirkung als die aus dem Stand der Technik bekannten Verbindungen (A) und (B)
4 | CC(C)(C)C(O)/C(=C\c1ccc([N+](=O)[O-])cc1)n1cncn1 (stereo not drawn) [Beispiel 10] | bessere antimykotische Wirkung als die aus dem Stand der Technik bekannten Verbindungen (A) und (B) | bessere Wirkung als die aus dem Stand der Technik bekannten Verbindungen (A) und (B)
5 | CC(C)(C)C(O)/C(=C\c1ccc(C(F)(F)F)cc1Cl)n1cncn1 (stereo not drawn) [Beispiel 12] | bessere antimykotische Wirkung als die aus dem Stand der Technik bekannten Verbindungen (A) und (B) | bessere Wirkung als die aus dem Stand der Technik bekannten Verbindungen (A) und (B)
6 | CC(C)(C)C(O)/C(=C\c1ccc(OC(F)(F)F)cc1)n1cncn1 (stereo not drawn) [Beispiel 14] | bessere antimykotische Wirkung als die aus dem Stand der Technik bekannten Verbindungen (A) und (B) | bessere Wirkung als die aus dem Stand der Technik bekannten Verbindungen (A) und (B)
7 | CC(C)(C)C(O)/C(=C\c1ccc(SC(F)(F)F)cc1)n1cncn1 (stereo not drawn) [Beispiel 16] | bessere antimykotische Wirkung als die aus dem Stand der Technik bekannten Verbindungen (A) und (B) | –
8 | CC(C)(C)C(O)/C(=C\c1ccc(C(F)(F)F)cc1)n1cncn1 (stereo not drawn) [Beispiel 18] | bessere antimykotische Wirkung als die aus dem Stand der Technik bekannten Verbindungen (A) und (B) | bessere Wirkung als die aus dem Stand der Technik bekannten Verbindungen (A) und (B)
9 | CC(C)(C)C(O)/C(=C\c1ccc(C(F)(F)F)c(Cl)c1)n1cncn1 (stereo not drawn) [Beispiel 20] | bessere antimykotische Wirkung als die aus dem Stand der Technik bekannten Verbindungen (A) und (B) | –
10 | CC(C)(C)C(O)/C(=C\c1ccc(OC(F)(F)F)c(Cl)c1)n1cncn1 (stereo not drawn) [Beispiel 22] | bessere antimykotische Wirkung als die aus dem Stand der Technik bekannten Verbindungen (A) und (B) | –
